Measured values from patent US12552811B2, “Immunosuppressant, and preparation method therefor and use thereof” (Abbisko Therapeutics Co., Ltd., priority 2020, dated 2026).

Experiments:
[1] = biological target: interaction between PD-1 and PD-L1 (Homo sapiens (Human), UniProt Q9NZQ7); assay: PD1-PDL1 HTRF binding activity test; conditions: Cisbio PD-1/PD-L1 binding assay kit
Protocol: I. PD1-PDL1 HTRF Binding Activity Test
The effect of compounds of the examples of the present invention on the interaction between PD-1 and PD-L1 was determined by the PD-1/PD-L1 binding assay kit from Cisbio (#64ICP01PEG or 64ICP01PEH). The detailed experimental process was as follows: • 1) Pre-diluted compound solution, 4 μL of Tag1-PD-L1 and 4 μL of Tag2-PD1 were added to each well of a 384-well plate: • 2) After the mixture was incubated at room temperature for 15 min, 5 μL of anti-Tag1-Eu3+ antibody and 5 μL of anti-Tag2-XL665 antibody were then added; • 3) After incubated for 2 hrs at room temperature or overnight at 4° C., plates were read on Envision of Pelkin Elmer; and readings at 665 nm and 620 nm were recorded, and the ratio of the two readings was taken as a reading for each well; • 4) The reading of each well after compound treatment was compared with the reading of DMSO treated wells to obtain the percent inhibition of the compound; • 5) IC50 values of compounds and positive compounds of the examples of the present invention were determined by non-linear regression analysis of percent inhibition at different compound concentrations. II. Jurkat Reporter Gene Cellular Assay

[2] = Jurkat reporter gene cellular assay; assay type: cell-based; conditions: Homo sapiens; Jurkat/NF-κB-luc/PD1 + Raji-PD-L1 coculture, OKT3 1 μg/mL, 6 hrs, activation fold; read-out: Cell Activity EC50
[3] = Pharmacokinetic assay in mice; assay type: in vivo; conditions: male, mouse; ICR mice, PO 10 mg/kg, plasma
Protocol: III. Pharmacokinetic Assay in Mice
The purpose of this study was to study the pharmacokinetic behaviors of some compounds of the present invention, and administration routes were: per oral administration (PO) to ICR mice at a dose of 10 mg/kg.
The compounds used in this test came from the compounds of the specific examples of the present invention.
ICR mice, male, N=3, with the original source of Shanghai Sippr-BK Laboratory Animal Co. Ltd.
2.3 Preparation and Administration of Drug
The compounds were weighed, and dissolved in a solvent of 0.5% SDS+0.5% CMCNa. The mixture solutions were mixed well by shaking and ultrasonic treatment to obtain colorless clear solutions. The solutions were orally administered to nine mice after an overnight fast. The dosage of administration was 10 mg/kg.
• 1) With about 90 μL/time point, blood was drawn from the submaxillary vein, and heparin sodium was added for anticoagulation. The blood samples were placed onto the ice, and were centrifuged (centrifugation conditions: 8000 r/min, 6 min, 2-8° C.) within 1 hr to obtain plasmas. • 2) The time points for blood sampling were at 0 hr, 0.25 hr, 0.5 hr, 1 hr, 2 hrs, 4 hrs, 6 hrs, 8 hrs and 24 hrs after administration. The samples were stored in a refrigerator at −20° C. • 3) 40 μL of plasma sample was added to 160 μL of cold acetonitrile containing an internal standard, and the mixture solution was vortexed for 3 min and centrifuged at 11,000 r/min for 5 min. • 4) 100 μL of supernate was taken and added to 100 μL of water, and 5 μL of the sample was taken and analyzed by LC/MS/MS.
The compounds from some representative examples of the present invention were administered and tested according to the above method, and their prototype compounds were detected.

Chain of interaction between PD-1 and PD-L1 (Q9NZQ7 19-238): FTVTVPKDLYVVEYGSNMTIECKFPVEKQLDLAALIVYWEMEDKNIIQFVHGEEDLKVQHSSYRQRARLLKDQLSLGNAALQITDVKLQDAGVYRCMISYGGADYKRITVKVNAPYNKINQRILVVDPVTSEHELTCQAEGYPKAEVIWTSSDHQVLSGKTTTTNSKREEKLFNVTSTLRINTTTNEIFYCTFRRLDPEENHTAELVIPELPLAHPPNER

IC50 [1]	EC50 [2]	AUC(0-t) [3]	Cmax [3]	MRT [3]	Tmax [3]	half-life [3]	Structure (SMILES)
0.73 nM	53.5 nM	13900 ng·h/mL	1630 ng/mL	5.7 h	1 h	3.8 h	CC(C)N1CCc2cc(C(=O)Nc3cccc(-c4cccc(NC(=O)c5nc6c(n5C)CCN(CCC57CCC(C(=O)O)(CC5)CC7)C6)c4Cl)c3Cl)ncc2C1 [Example 58, 4-(2-(2-((2,2′-dichloro-3′-(7-isopropyl-5,6,7,8-tetrahydro-2,7-naphthyridine-3-carboxamido)-[1,1′-biphenyl]-3-yl)carbamoyl)-1-methyl-1,4,6,7-tetrahydro-5H-imidazo[4,5-c]pyridin-5-yl)ethyl)bicyclo [2.2.2]octane-1-carboxylic acid]
0.73 nM	53.8 nM	18400 ng·h/mL	2850 ng/mL	4.9 h	0.5 h	3.6 h	CC(C)N1CCc2cc(C(=O)Nc3cccc(-c4cccc(NC(=O)c5nc6c(n5C)CCN(CCC57CCC(C(=O)O)(CC5)C7)C6)c4Cl)c3Cl)ncc2C1 [Example 1, 4-(2-(2-((2,2′-dichloro-3′-(7-isopropyl-5,6,7,8-tetrahydro-2,7-naphthyridine-3-carboxamido)-[1,1′-biphenyl]-3-yl)carbamoyl)-1-methyl-1,4,6,7-tetrahydro-5H-imidazo[4,5-c]pyridin-5-yl)ethyl)bicyclo[2.2.1]heptane-1-carboxylic acid]
